According to ChEMBL document CHEMBL5331140, “Discovery of IACS-52825, a Potent and Selective DLK Inhibitor for Treatment of Chemotherapy-Induced Peripheral Neuropathy” (J Med Chem, 2023):
The source made the active and inactive calls.

Experiments:
[1] = Ratio of unbound drug concentration in C57BL/6 mouse brain to plasma at 0.3 mg/kg, iv measured for 24 hrs by LC-MS/MS analysis; format: ADME, organism-based; details: brain and plasma, read-out: K(p,uu,brain)
[2] = Metabolic stability in mouse liver microsomes assessed as intrinsic clearance at 1 uM in presence of NADPH regenerating system measured for 45 mins by LC-MS/MS analysis; format: ADME, Microsome; details: read-out: CLH
[3] = Metabolic stability in human liver microsomes assessed as intrinsic clearance at 1 uM in presence of NADPH regenerating system measured for 45 mins by LC-MS/MS analysis; format: ADME, Microsome; details: read-out: CLH
[4] = Metabolic stability in rat liver microsomes assessed as intrinsic clearance at 1 uM in presence of NADPH regenerating system measured for 45 mins by LC-MS/MS analysis; format: ADME, Microsome; details: read-out: CLH
[5] = Binding affinity to full length human DLK (1 to 859 residues)/NFkappaB DNA binding domain (unknown origin) fusion protein transfected in HEK293 cells assessed as dissociation constant incubated for 1 hr by Kinomescan assay; format: cell-based
[6] = Oral bioavailability in C57BL/6 mouse at 10 mg/kg administered via oral gavage and measured for 24 hrs by LC-MS/MS analysis; format: ADME, organism-based; details: in vivo; for bioavailability: C57BL/6, mouse
[7] = molecular target: T1, Mitogen-activated protein kinase kinase kinase 12 (Homo sapiens, UniProt Q12852); test: Inhibition of doxycycline-inducible human DLK transfected in HEK293 cells assessed as reduction in c-Jun phosphorylation at Ser63 residue incubated for 5 hrs; format: cell-based
T1 sequence (Q12852 whole entry): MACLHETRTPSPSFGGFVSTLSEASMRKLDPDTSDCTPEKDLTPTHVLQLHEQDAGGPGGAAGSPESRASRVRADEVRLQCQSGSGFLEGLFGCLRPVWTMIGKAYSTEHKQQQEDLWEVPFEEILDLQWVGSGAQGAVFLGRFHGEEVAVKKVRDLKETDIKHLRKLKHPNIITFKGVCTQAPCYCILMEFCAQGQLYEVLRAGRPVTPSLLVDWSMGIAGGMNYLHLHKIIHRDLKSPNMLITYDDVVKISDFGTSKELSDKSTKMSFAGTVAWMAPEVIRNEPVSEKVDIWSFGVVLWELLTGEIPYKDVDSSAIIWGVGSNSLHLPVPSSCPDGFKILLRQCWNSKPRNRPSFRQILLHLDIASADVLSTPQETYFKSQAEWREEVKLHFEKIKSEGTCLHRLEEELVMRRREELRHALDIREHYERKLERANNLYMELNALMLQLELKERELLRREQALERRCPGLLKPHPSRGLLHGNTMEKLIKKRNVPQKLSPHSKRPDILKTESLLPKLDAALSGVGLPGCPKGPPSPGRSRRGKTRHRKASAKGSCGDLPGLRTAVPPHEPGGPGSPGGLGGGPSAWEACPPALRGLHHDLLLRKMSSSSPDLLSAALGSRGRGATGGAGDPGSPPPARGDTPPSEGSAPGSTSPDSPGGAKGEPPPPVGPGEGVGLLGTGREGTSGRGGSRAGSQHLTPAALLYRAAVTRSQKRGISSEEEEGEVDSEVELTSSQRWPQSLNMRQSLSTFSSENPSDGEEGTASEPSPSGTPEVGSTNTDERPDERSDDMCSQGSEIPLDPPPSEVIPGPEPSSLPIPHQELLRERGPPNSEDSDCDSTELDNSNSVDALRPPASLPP

[8] = Volume of distribution at steady state in C57BL/6 mouse at 0.3 mg/kg, iv administered via tail vein and measured for 24 hrs by LC-MS/MS analysis; format: ADME, organism-based; details: in vivo, read-out: Vdss
[9] = AUClast in C57BL/6 mouse at 10 mg/kg administered via oral gavage and measured for 24 hrs by LC-MS/MS analysis; format: ADME, organism-based; design: time 24 hrs, dose 10 mg/kg, route po; details: in vivo
[10] = Cmax in C57BL/6 mouse at 10 mg/kg administered via oral gavage and measured for 24 hrs by LC-MS/MS analysis; format: ADME, organism-based; design: dose 10 mg/kg, time 24 hrs, route po; details: in vivo
[11] = Half life in C57BL/6 mouse at 0.3 mg/kg, iv administered via tail vein and measured for 24 hrs by LC-MS/MS analysis; format: ADME, organism-based; details: in vivo
[12] = Half life in C57BL/6 mouse at 0.3 mg/kg, iv measured for 24 hrs by LC-MS/MS analysis; format: ADME, organism-based; details: in vivo
[13] = Half life in Sprague-Dawley rat at 3 mg/kg, po or 0.3 mg/kg, iv measured for 24 hrs by LC-MS/MS analysis; format: ADME, organism-based; details: in vivo
[14] = molecular target: T2, Dual specificity mitogen-activated protein kinase kinase 5 (Homo sapiens) (UniProt Q13163); test: Inhibition of MEK5 (unknown origin) at 1 uM relative to control
T2 sequence (whole entry): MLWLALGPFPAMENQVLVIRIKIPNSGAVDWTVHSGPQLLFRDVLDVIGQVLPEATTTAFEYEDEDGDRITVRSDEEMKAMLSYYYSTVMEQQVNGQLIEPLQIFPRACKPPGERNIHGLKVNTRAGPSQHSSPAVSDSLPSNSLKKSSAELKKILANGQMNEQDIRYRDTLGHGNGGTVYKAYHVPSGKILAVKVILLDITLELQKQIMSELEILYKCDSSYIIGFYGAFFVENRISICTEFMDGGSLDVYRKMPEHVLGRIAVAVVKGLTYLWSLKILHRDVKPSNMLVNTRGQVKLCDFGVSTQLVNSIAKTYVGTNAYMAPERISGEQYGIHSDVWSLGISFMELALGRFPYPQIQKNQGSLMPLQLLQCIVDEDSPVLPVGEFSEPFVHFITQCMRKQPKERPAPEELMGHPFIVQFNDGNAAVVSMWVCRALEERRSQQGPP

[15] = tested on: Mus musculus; test: (§1) Antiallodynic activity in cisplatin-induced mechanical allodynia C57BL/6 mouse model assessed as increase in paw withdrawal threshold at 30 mg/kg, po stimulated with cisplatin on day 1 to 5 and 10 to 15 followed by daily administration of compound from day 6 to 16 and measured for 30 days by von frey test; format: functional, organism-based; details: time 25.0 day
[16] = tested on: Mus musculus; test: as §1, with “day” for “day 6 to”, “for 35” for “for 30”; format: functional, organism-based; details: time 20.0 day
[17] = Oral bioavailability in Sprague-Dawley rat at 3 mg/kg administered via oral gavage and measured for 24 hrs by LC-MS/MS analysis; format: ADME, organism-based; details: in vivo
[18] = Toxicity in rat by GLP toxicity study; details: in vivo
[19] = Half life in cynomolgus monkey at 1 mg/kg, po or 0.3 mg/kg, iv measured for 24 hrs by LC-MS/MS analysis; format: ADME, organism-based, Macaca fascicularis; details: in vivo
[20] = Half life in Beagle dog at 1 mg/kg, po or 0.3 mg/kg, iv measured for 24 hrs by LC-MS/MS analysis; format: ADME, organism-based, Canis lupus familiaris; details: in vivo
[21] = Oral bioavailability in cynomolgus monkey at 1 mg/kg administered via nasal gavage measured for 24 hrs by LC-MS/MS analysis; format: ADME, organism-based, Macaca fascicularis; details: in vivo
[22] = Oral bioavailability in Beagle dog at 1 mg/kg administered via oral gavage and measured for 24 hrs by LC-MS/MS analysis; format: ADME, organism-based, Canis lupus familiaris; details: in vivo
[23] = molecular target: Voltage-gated inwardly rectifying potassium channel KCNH2 (Homo sapiens, UniProt Q12809)
Voltage-gated inwardly rectifying potassium channel KCNH2, sequence (Q12809 whole entry): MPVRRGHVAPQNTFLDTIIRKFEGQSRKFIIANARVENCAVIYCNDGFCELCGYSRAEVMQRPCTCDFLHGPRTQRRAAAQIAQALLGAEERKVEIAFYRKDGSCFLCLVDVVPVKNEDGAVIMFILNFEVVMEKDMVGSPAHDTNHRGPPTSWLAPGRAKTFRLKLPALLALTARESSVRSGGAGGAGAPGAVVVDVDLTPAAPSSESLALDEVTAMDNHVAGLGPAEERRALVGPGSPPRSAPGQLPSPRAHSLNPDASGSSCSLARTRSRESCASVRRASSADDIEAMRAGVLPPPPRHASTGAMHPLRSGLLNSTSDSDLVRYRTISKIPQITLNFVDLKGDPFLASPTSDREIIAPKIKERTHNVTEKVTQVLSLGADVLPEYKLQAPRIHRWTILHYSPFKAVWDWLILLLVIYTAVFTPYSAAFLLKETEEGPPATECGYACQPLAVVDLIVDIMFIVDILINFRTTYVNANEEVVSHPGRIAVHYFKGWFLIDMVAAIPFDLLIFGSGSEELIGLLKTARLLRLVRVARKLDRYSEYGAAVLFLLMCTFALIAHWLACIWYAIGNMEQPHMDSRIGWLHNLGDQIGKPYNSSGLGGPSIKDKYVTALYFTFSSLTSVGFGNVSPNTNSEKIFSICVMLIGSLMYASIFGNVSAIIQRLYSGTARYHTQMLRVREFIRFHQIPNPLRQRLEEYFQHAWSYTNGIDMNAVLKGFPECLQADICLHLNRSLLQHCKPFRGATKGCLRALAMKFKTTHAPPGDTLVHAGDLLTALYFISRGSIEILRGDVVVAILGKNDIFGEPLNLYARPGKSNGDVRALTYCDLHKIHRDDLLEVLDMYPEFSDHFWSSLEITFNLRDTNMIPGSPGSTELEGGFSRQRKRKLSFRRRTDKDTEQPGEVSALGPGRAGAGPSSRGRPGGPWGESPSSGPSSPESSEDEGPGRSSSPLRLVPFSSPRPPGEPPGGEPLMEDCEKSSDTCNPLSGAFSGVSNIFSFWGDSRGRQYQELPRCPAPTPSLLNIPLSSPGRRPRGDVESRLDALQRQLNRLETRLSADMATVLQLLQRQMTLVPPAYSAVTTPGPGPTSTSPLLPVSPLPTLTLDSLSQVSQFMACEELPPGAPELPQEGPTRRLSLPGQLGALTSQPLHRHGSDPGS
Description: Inhibition of hERG expressed in CHO cells at -80 mV holding potential by QPatch automated electrophysiology assay

Kp uu at 24 h [1] | CLint scaled at 1 µM [2] [L/h/kg] | CLint scaled at 1 µM [3] [L/h/kg] | CLint scaled at 1 µM [4] [L/h/kg] | SMILES | Kd [5] [µM] | other results
0.2 | 0.18 | 1.32 | 0.06 | CC(C)[C@H](O)c1nc(-c2cnc(N)c(OC(F)(F)F)c2)cn1C12CC(N3CCOCC3)(C1)C2 | 0.0004 | –
– | – | 2.1 | 5.46 | CC(C)C(O)c1nc(-c2cnc(N)c(OC(F)(F)F)c2)cn1C12CC(C1)C2 (centres undefined) | 0.0006 | –
– | 47.3 | 14 | 7.98 | CC(C)c1nc(-c2cnc(N)c(C(F)(F)F)c2)cn1C1CCC1 | 0.066 | –
– | – | 0.84 | 2.58 | CC(C)(C)Cc1nc(-c2cnc(N)c(C(F)(F)F)c2)cn1C12CC(N3CCOCC3)(C1)C2 | 0.066 | –
1.1 | 1.56 | 0.84 | 1.92 | Nc1ncc(-c2cn(C34CC(C3)C4)c([C@@H](O)C(F)(F)F)n2)cc1OC(F)(F)F | 0.0012 | F ([6]; mouse, po, 10 mg/kg, 24 h): 51%; IC50 [7]: 0.048 µM; Vd [8]: 4.6 L/kg; AUClast [9]: 14.4 µM·h; Cmax [10]: 2 µM; half-life [11]: 3.5 h
– | – | – | – | Nc1ncc(-c2cc([C@H]3[C@@H]4CN(C5COC5)C[C@@H]43)n(CC3CC3)n2)cc1C(F)(F)F | 0.013 | –
– | 11.9 | 10.1 | 4.14 | CC(C)c1nc(-c2cnc(N)c(C(F)(F)F)c2)cn1C12CC(C1)C2 | 0.049 | –
– | – | – | – | Nc1ncc(-c2cn([C@H]3[C@@H]4CN(C5COC5)C[C@@H]43)c(CC3CC3)n2)cc1C(F)(F)F | 0.063 | –
– | – | – | – | CC(C)c1nc(-c2cnc(N)c(C(F)(F)F)c2)cn1C1CC1 | 0.13 | –
– | 160 | 21.7 | 14.3 | CC(C)c1nc(-c2cnc(N)c(C(F)(F)F)c2)cn1C1CCCC1 | 0.225 | –
0.34 | 0.96 | 0.3 | 0.6 | Nc1ncc(-c2cn(C34CC(N5CCOCC5)(C3)C4)c(C3CC3)n2)cc1C(F)(F)F | 0.013 | half-life [12]: 3.8 h
– | – | – | – | CC(C)n1nc(-c2cnc(N)c(C(F)(F)F)c2)cc1C1CC1 | 0.11 | –
– | – | 0.54 | 0.66 | CC(C)Cc1nc(-c2cnc(N)c(C(F)(F)F)c2)cn1C12CC(N3CCOCC3)(C1)C2 | 0.0061 | –
0.6 | 0.54 | 0.54 | 0.36 | CC(C)c1nc(-c2cnc(N)c(OC(F)(F)F)c2)cn1C12CC(N3CCOCC3)(C1)C2 | 0.014 | half-life [13]: 7 h; bioavailability [6]: > 100%; inhibition [14]: 16%; Activity [15]: Active; Activity [16]: Active; half-life [12]: 3.5 h; bioavailability [17]: > 100%; Activity [18]: Toxic; half-life [19]: 6.3 h; half-life [20]: 22.9 h; bioavailability [21]: 64%; bioavailability [22]: 80%; IC50 [23]: > 30 µM
– | – | 0.36 | 0.3 | Nc1ncc(-c2cn(C34CC(N5CCOCC5)(C3)C4)c(CC3CC3)n2)cc1C(F)(F)F | – | –
0.73 | 0.72 | 0.12 | 0.72 | Nc1ncc(-c2cn(C34CC(N5CCOCC5)(C3)C4)c(C3CC3)n2)cc1OC(F)(F)F | – | half-life [13]: 3.4 h; bioavailability [6]: > 100%; half-life [12]: 3.5 h; bioavailability [17]: > 100%; half-life [19]: 4.6 h; half-life [20]: 10.5 h; bioavailability [21]: 66%; bioavailability [22]: 77%
0.14 | 0.36 | 0.42 | – | CC(C)c1nc(-c2cnc(N)c(C(F)(F)F)c2)cn1C12CC(N3CCOCC3)(C1)C2 | 0.012 | half-life [12]: 3.3 h
